Laboratory results taken from US12110286B2, “Benzimidazolone derived inhibitors of BCL6” (Cancer Research Technology Limited, priority 2017, dated 2024).

target: Trx-6×His-BCL6 (human BCL6 BTB domain covering amino-acid sequence 5-129) (Homo sapiens (Human), UniProt P41182); assay: HTRF in vitro assay (BCL6 / BCOR-AF633 peptide); assay type: binding; conditions: further generated data; 1 nM Trx-6×His-BCL6, 300 nM BCOR-AF633 peptide, 0.5 nM anti-6×His-Terbium cryptate
Method: The % inhibition at each concentration was calculated by normalising FRET ratio to the appropriate high (DMSO with all reagents) and low (DMSO without BCL6) controls.

Compound | HTRF pIC50
CCOC(=O)c1cnn(-c2ncc(Cl)c(Nc3ccc4c(c3)n(CCC(C)(C)O)c(=O)n4C)n2)c1 [Example 15b] | 5.96
Cc1cc(C)n(-c2ncc(Cl)c(Nc3ccc4c(c3)n(CCC(C)(O)CCO)c(=O)n4C)n2)n1 (centres unmarked) [Example 15e] | 6.02
CCC(C)(O)CCn1c(=O)n(C)c2ccc(Nc3nc(-n4nc(C)cc4C)ncc3Cl)cc21 (centres unmarked) [Example 15f] | 6.00
CN(C)c1ncc(Cl)c(Nc2ccc3c(c2)n(CCC(C)(C)O)c(=O)n3C)n1 [Example 15g] | 5.89
Cc1cc(C)n(-c2ncc(Cl)c(Nc3ccc4c(c3)[nH]c(=O)n4C)n2)n1 [Example 15h] | 5.86
COCC(C)(O)CCn1c(=O)n(C)c2ccc(Nc3nc(-n4nc(C)cc4C)ncc3Cl)cc21 (centres unmarked) [Example 15j] | 5.76
CN(C)C(=O)C1CCN(c2ncc(Cl)c(Nc3ccc4c(c3)n(CCC(C)(O)CCO)c(=O)n4C)n2)CC1 (centres unmarked) [Example 15k] | 6.27
Cn1c(=O)n(CCC(C)(C)O)c2cc(Nc3nc(-n4cccn4)ncc3Cl)ccc21 [Example 15m] | 6.08
Cc1cc(C)n(-c2cc(Nc3ccc4c(c3)n(CCC(C)(C)O)c(=O)n4C)c(C#N)cn2)n1 [Example 15o] | 5.88
Cc1cc(C)n(-c2nc(C)c(Cl)c(Nc3ccc4c(c3)n(CCC(C)(C)O)c(=O)n4C)n2)n1 [Example 15p] | 5.82
Cc1cc(C)n(-c2ncc(Br)c(Nc3ccc4c(c3)n(CCC(C)(C)O)c(=O)n4C)n2)n1 [Example 15q] | 6.09
Cc1ccn(-c2ncc(Cl)c(Nc3ccc4c(c3)n(CCC(C)(C)O)c(=O)n4C)n2)n1 [Example 16a, 5-((5-chloro-2-(3-methyl-1H-pyrazol-1-yl)pyrimidin-4-yl)amino)-3-(3-hydroxy-3-methylbutyl)-1-methyl-1,3-dihydro-2H-benzo[d]imidazol-2-one] | 6.38
Cc1ccnn1-c1ncc(Cl)c(Nc2ccc3c(c2)n(CCC(C)(C)O)c(=O)n3C)n1 [Example 16b, 5-((5-chloro-2-(5-methyl-1H-pyrazol-1-yl)pyrimidin-4-yl)amino)-3-(3-hydroxy-3-methylbutyl)-1-methyl-1,3-dihydro-2H-benzo[d]imidazol-2-one] | 6.31
Cn1c(=O)n(CCC2(O)CCC2)c2cc(Nc3ccnc(Cl)c3C#N)ccc21 [Example 18a, 2-chloro-4-((3-(2-(1-hydroxycyclobutyl)ethyl)-1-methyl-2-oxo-2,3-dihydro-1H-benzo[d]imidazol-5-yl)amino)nicotinonitrile] | 5.90
Cn1c(=O)n(CCS(C)(=O)=O)c2cc(Nc3ccnc(Cl)c3C#N)ccc21 [Example 18b, 2-chloro-4-((1-methyl-3-(2-(methylsulfonyl)ethyl)-2-oxo-2,3-dihydro-1H-benzo[d]imidazol-5-yl)amino)nicotinonitrile] | 5.31
CCC(=O)CCn1c(=O)n(C)c2ccc(Nc3ccnc(Cl)c3C#N)cc21 [Example 19a, 2-chloro-4-((1-methyl-2-oxo-3-(3-oxopentyl)-2,3-dihydro-1H-benzo[d]imidazol-5-yl)amino)nicotinonitrile] | 5.83
CC1OCCC1Cn1c(=O)n(C)c2ccc(Nc3ccnc(Cl)c3C#N)cc21 (centres unmarked) [Example 19b] | 5.55
Cn1c(=O)n(CCC2(C)OCCO2)c2cc(Nc3ccnc(Cl)c3C#N)ccc21 [Example 19c] | 5.45
Cn1c(=O)n(CC2CCN2C(=O)OC(C)(C)C)c2cc(Nc3ccnc(Cl)c3C#N)ccc21 (centres unmarked) [Example 19d] | 5.44
CN1CC(Cn2c(=O)n(C)c3ccc(Nc4nc(N5CC(C)(C)OC(C)(C)C5)ncc4Cl)cc32)(C(C)(C)O)OC1=O (centres unmarked) [Example 20b] | 6.01
Cn1c(=O)n(CCC(C)(C)O)c2cc(Nc3nc(N4CCCCC4)ncc3Cl)ccc21 [Example 20d] | 5.92
CC(C)Nc1ncc(Cl)c(Nc2ccc3c(c2)n(CCC(C)(C)O)c(=O)n3C)n1 [Example 20f] | 5.99
CCN(C)c1ncc(Cl)c(Nc2ccc3c(c2)n(CCC(C)(C)O)c(=O)n3C)n1 [Example 20i] | 6.17
